Like-named read-outs stand apart in the source and are kept apart here.
Tests used:
[1] = pig, in vivo, sc
Source text: Furthermore, systemic effects as bleeding were investigated by examination of all major tissues and organs.

[2] = Cumulative urine excretion of argatroban, by ecarin clotting time (ECT); type: in vivo; settings: pigs, s.c., similar for both formulations
Description: The blood samples were drawn into plastic tubes containing 3.13% sodium citrate before dosing and at definite time intervals thereafter. Then, blood samples were centrifuged (1000 g for 10 min) to obtain citrated plasma. Urine samples were also collected using a bladder catheter and frozen at −20°C until further analysis.
Furthermore, antithrombin activity in plasma samples was also determined by ecarin chromogenic assay (ECA).

[3] = cited from earlier work
[4] = cited from earlier work; remark: listed apart in the source
[5] = after subcutaneous administration

Compound	Local bleeding, toxic reactions, and other side effects [1]	administered antithrombotic active amount recovered in urine (cumulative) [2]	solubility in water [3]	half-life ([4]; administered intravenously)	half-life [4, 5] [min]	period of stable plasma concentrations and antithrombotic activity [4, 5]
CC1CNc2c(cccc2S(=O)(=O)N[C@@H](CCCNC(=N)N)C(=O)N2CC[C@@H](C)C[C@@H]2C(=O)O)C1 (stereo partly drawn) [Argatroban]	not observed	15–20%	about 1 mg·mL^−1	–	–	–
hirudin	–	–	–	about 60 min	120	approximately 12 hours
